± gives the standard deviation of the averaged measurements.
Test system: A204
Assay: relative viability vs DMSO control (72 h) (fraction); higher = more viable cells
Outline: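 Serially diluted compound, 2.5 µl from source plates spanning 10 mM to 0.0002 mM, was added 24 h after sarcoma cell lines were seeded in 384-well plates at densities targeting 80–90% confluence. Plates then sat 72 h at 37 °C, 5% CO2, with 0.1% DMSO vehicle and a 5 µM positive control. Relative viability came from ATPLite as percent growth, averaged over up to triplicate wells, and was rescaled with 1 as full and 0 as none.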

## COc1cc2nccc(Oc3ccc(NC(=O)Nc4cc(C)on4)c(Cl)c3)c2cc1OC [Tivozanib]
0.00017 µM
  relative viability: 1.1 ± 0.05
0.00051 µM
  relative viability: 1.07 ± 0.048
0.00152 µM
  relative viability: 1.09 ± 0.032
0.00457 µM
  relative viability: 1.08 ± 0.026
0.01372 µM
  relative viability: 0.998 ± 0.063
0.04115 µM
  relative viability: 0.712 ± 0.021
0.1235 µM
  relative viability: 0.504 ± 0.038
0.3704 µM
  relative viability: 0.438 ± 0.025
1.111 µM
  relative viability: 0.418 ± 0.029
3.333 µM
  relative viability: 0.348 ± 0.0075
10 µM
  relative viability: 0.228 ± 0.02

## C[C@]1(O)C[C@@H](c2nc(-c3ccc4ccc(-c5ccccc5)nc4c3)c3c(N)nccn32)C1 [Linsitinib]
0.00017 µM
  relative viability: 1.08 ± 0.049
0.00051 µM
  relative viability: 1.05 ± 0.058
0.00152 µM
  relative viability: 1.05 ± 0.021
0.00457 µM
  relative viability: 1.06 ± 0.05
0.01372 µM
  relative viability: 1.03 ± 0.017
0.04115 µM
  relative viability: 1.03 ± 0.048
0.1235 µM
  relative viability: 1.04 ± 0.087
0.3704 µM
  relative viability: 0.99 ± 0.077
1.111 µM
  relative viability: 0.907 ± 0.063
3.333 µM
  relative viability: 0.755 ± 0.097
10 µM
  relative viability: 0.476 ± 0.017

## C=CC(=O)Nc1cccc(Oc2nc(Nc3ccc(N4CCN(C)CC4)cc3)nc3ccsc23)c1 [Olmutinib]
0.00017 µM
  relative viability: 1.09 ± 0.028
0.00051 µM
  relative viability: 1.05 ± 0.038
0.00152 µM
  relative viability: 1.06 ± 0.019
0.00457 µM
  relative viability: 1.06 ± 0.039
0.01372 µM
  relative viability: 1.05 ± 0.031
0.04115 µM
  relative viability: 1.05 ± 0.02
0.1235 µM
  relative viability: 1.01 ± 0.03
0.3704 µM
  relative viability: 1.03 ± 0.022
1.111 µM
  relative viability: 0.929 ± 0.054
3.333 µM
  relative viability: 0.568 ± 0.064
10 µM
  relative viability: 0.177 ± 0.031

## O=C(Nc1cnn2ccc(N3CCC[C@@H]3c3cc(F)ccc3F)nc12)N1CC[C@H](O)C1 [Larotrectinib]
0.00017 µM
  relative viability: 1.11 ± 0.015
0.00051 µM
  relative viability: 1.1 ± 0.029
0.00152 µM
  relative viability: 1.11 ± 0.037
0.00457 µM
  relative viability: 1.06 ± 0.043
0.01372 µM
  relative viability: 1.11 ± 0.039
0.04115 µM
  relative viability: 1.08 ± 0.02
0.1235 µM
  relative viability: 1.09 ± 0.046
0.3704 µM
  relative viability: 1.11 ± 0.04
1.111 µM
  relative viability: 1.06 ± 0.057
3.333 µM
  relative viability: 1.115 ± 0.011
10 µM
  relative viability: 1.09 ± 0.016
